Results from ChEMBL document CHEMBL1141099, “Discovery of N-(2,6-dimethylphenyl)-substituted semicarbazones as anticonvulsants: hybrid pharmacophore-based design” (2005).

How the values were obtained:
Mus musculus [1] = experiment: Minimum dose required for anticonvulsant activity when given i.p., at 0.5 hr in mice upon subcutaneous strychnine seizure; assay type: functional
Rattus norvegicus [2] = experiment: Seizure score before administration in rat 1 at dose 100 mg/Kg when given i.p., upon preliminary hippocampal-kindling screen; assay type: functional, Hippocampus
Rattus norvegicus [3] = experiment: After discharge duration time when before administered in rat 2 at dose 100 mg/Kg when given i.p., upon preliminary hippocampal-kindling screen; Prodrug time 11-39 s; assay type: functional, Hippocampus
Mus musculus [4] = experiment: Post treatment immobility time for CNS study using Porsolt's swimpool test at a dose of 100 mg/Kg after 1 hr when given i.p., in mice (No. of animals 6); Control (24h before) 173
Rattus norvegicus [5] = experiment: After discharge duration time when before administered in rat 1 at dose 100 mg/Kg when given i.p., upon preliminary hippocampal-kindling screen; Prodrug time 26-42 s; assay type: functional, Hippocampus
Rattus norvegicus [6] = experiment: Number of rats protected at a dose of 30 mg/Kg when given oral at 2 hr upon maximal electroshock seizure; Total number of rats = 4; assay type: functional
Mus musculus [7] = experiment: Minimum dose required for anticonvulsant activity when given i.p., at 0.5 hr in mice upon subcutaneous pentylenetetrazole seizure; assay type: functional
Rattus norvegicus [8] = species on record: Rattus norvegicus; experiment: Ex vitro percentage inhibition activity against GABA-T enzyme at a concentration of 5 uM after 6 h; assay type: functional
Rattus norvegicus [9] = species on record: Rattus norvegicus; experiment: Protective index between effective dose and toxic dose in rat; assay type: functional
Mus musculus [10] = experiment: Minimum dose required for anticonvulsant activity when given i.p., at 2 hr in mice upon subcutaneous strychnine seizure; assay type: functional
Mus musculus [11] = experiment: Minimum dose required for anticonvulsant activity when given i.p., at 0.5 hr in mice upon neurotoxicity seizure using rotarod test; assay type: functional
Rattus norvegicus [12] = experiment: Number of rats protected at a dose of 30 mg/Kg when given oral at 0.5 hr upon maximal electroshock seizure; Total number of rats = 4; assay type: functional
Mus musculus [13] = experiment: Minimum dose required for anticonvulsant activity when given i.p., at 0.5 hr in mice upon maximal electroshock seizure; assay type: functional
Mus musculus [14] = experiment: Mean sleeping time evaluated for CNS study using the pentobarbital-induced narcosis model at a dose of 100 mg/Kg when given i.p., in mice (No. of animals 6)
Mus musculus [15] = experiment: Post treatment activity score for CNS study using a actophotometer at a dose of 100 mg/Kg after 1 hr when given i.p., in mice (No. of animals 6); Control (24h before) 202
Rattus norvegicus [16] = experiment: Seizure score before administration in rat 2 at dose 100 mg/Kg when given i.p., upon preliminary hippocampal-kindling screen; […]; assay type: functional, Hippocampus
Rattus norvegicus [17] = experiment: Effect on GABA level in rat whole brain concentration after 2 hr post-treatment at a dose of 100 mg/Kg when given i.p.; Control 48.4; assay type: functional
Rattus norvegicus [18] = experiment: After discharge duration time when after administered in rat 1 at dose 100 mg/Kg when given i.p., upon preliminary hippocampal-kindling screen; assay type: functional, Hippocampus
Rattus norvegicus [19] = experiment: Number of rats protected at a dose of 30 mg/Kg when given oral at 4 hr upon maximal electroshock seizure; Total number of rats = 4; assay type: functional
Mus musculus [20] = experiment: Minimum dose required for anticonvulsant activity when given i.p., at 4 hr in mice upon maximal electroshock seizure; assay type: functional
Rattus norvegicus [21] = experiment: Number of rats protected at a dose of 30 mg/Kg when given oral at 1 hr upon maximal electroshock seizure; Total number of rats = 4; assay type: functional
[22] = molecular target: 4-aminobutyrate aminotransferase, mitochondrial (Rattus norvegicus) (UniProt P50554); experiment: In vitro percentage inhibition activity against GABA-T enzyme at a concentration of 0.625 uM after 6 h
Rattus norvegicus [23] = experiment: Effect on GABA level in rat whole brain concentration after 7 days post-treatment at a dose of 30 mg/Kg when given orally; Control 50.5; assay type: functional
Rattus norvegicus [24] = species on record: Rattus norvegicus; experiment: Ex vitro percentage inhibition activity against GABA-T enzyme at a concentration of 5 uM after 3 h; assay type: functional
Rattus norvegicus [25] = species on record: Rattus norvegicus; experiment: Ex vitro percentage inhibition activity against GABA-T enzyme at a concentration of 5 uM after 4.5 h; assay type: functional
[26] = molecular target: 4-aminobutyrate aminotransferase, mitochondrial (Rattus norvegicus) (UniProt P50554); experiment: In vitro percentage inhibition activity against GABA-T enzyme at a concentration of 0.625 uM after 3 h
Rattus norvegicus [27] = experiment: After discharge duration time when after administered in rat 2 at dose 100 mg/Kg when given i.p., upon preliminary hippocampal-kindling screen; assay type: functional, Hippocampus
Rattus norvegicus [28] = experiment: Effective dose required for anticonvulsant activity when given i.p., at 1 hr in rat upon maximal electroshock seizure; assay type: functional; conditions: ip
Rattus norvegicus [29] = experiment: Seizure score after administration in rat 2 at dose 100 mg/Kg when given i.p., upon preliminary hippocampal-kindling screen; assay type: functional, Hippocampus
Rattus norvegicus [30] = experiment: Toxic dose observed for anticonvulsant activity when given i.p., at 1 h in rat upon neurotoxicity seizure; assay type: functional; conditions: ip
[31] = molecular target: 4-aminobutyrate aminotransferase, mitochondrial (Rattus norvegicus) (UniProt P50554); experiment: In vitro percentage inhibition activity against GABA-T enzyme at a concentration of 0.625 uM after 4.5 h
Rattus norvegicus [32] = experiment: Number of rats protected at a dose of 30 mg/Kg when given oral at 0.25 hr upon maximal electroshock seizure; Total number of rats = 4; assay type: functional
Mus musculus [33] = experiment: Post treatment activity score for CNS study using a actophotometer at a dose of 100 mg/Kg after 0.5 hr when given i.p., in mice (No. of animals 6); Control (24h before) 202
Rattus norvegicus [34] = experiment: Seizure score after administration in rat 1 at dose 100 mg/Kg when given i.p., upon preliminary hippocampal-kindling screen; assay type: functional, Hippocampus
Rattus norvegicus [35] = experiment: Seizure score after administration in rat 1 at dose 130 mg/Kg when given i.p., upon preliminary hippocampal-kindling screen; assay type: functional, Hippocampus
Rattus norvegicus [36] = experiment: After discharge duration time when before administered in rat 2 at dose 130 mg/Kg when given i.p., upon preliminary hippocampal-kindling screen; Prodrug time 30-39 s; assay type: functional, Hippocampus
[37] = molecular target: 4-aminobutyrate aminotransferase, mitochondrial (Rattus norvegicus) (UniProt P50554); experiment: In vitro percentage inhibition activity against GABA-T enzyme at a concentration of 1.25 uM after 6 h
Rattus norvegicus [38] = experiment: Effective dose required for anticonvulsant activity when given orally at 4 h in rat upon maximal electroshock seizure; assay type: functional; conditions: po
[39] = molecular target: 4-aminobutyrate aminotransferase, mitochondrial (Rattus norvegicus) (UniProt P50554); experiment: In vitro percentage inhibition activity against GABA-T enzyme at a concentration of 1.25 uM after 3 h
Rattus norvegicus [40] = species on record: Rattus norvegicus; experiment: Ex vitro percentage inhibition activity against GABA-T enzyme at a concentration of 2.5 uM after 4.5 h; assay type: functional
Rattus norvegicus [41] = experiment: After discharge duration time when after administered in rat 1 at dose 130 mg/Kg when given i.p., upon preliminary hippocampal-kindling screen; assay type: functional, Hippocampus
Rattus norvegicus [42] = experiment: Seizure score after administration in rat 2 at dose 130 mg/Kg when given i.p., upon preliminary hippocampal-kindling screen; assay type: functional, Hippocampus
Rattus norvegicus [43] = experiment: Seizure score before administration in rat 2 at dose 130 mg/Kg when given i.p., upon preliminary hippocampal-kindling screen; assay type: functional, Hippocampus
Mus musculus [44] = experiment: Post treatment immobility time for CNS study using Porsolt's swimpool test at a dose of 100 mg/Kg after 1 h when given i.p., in mice (No. of animals 6); Control (24h before) 190
Rattus norvegicus [45] = species on record: Rattus norvegicus; experiment: Ex vitro percentage inhibition activity against GABA-T enzyme at a concentration of 2.5 uM after 6 h; assay type: functional
Rattus norvegicus [46] = experiment: Enzymatic activity to assess the increase in level of SGOT at a dose of 30 mg/Kg for 14 days when given p.o., in 6 rats; Control 73.1; assay type: functional
Mus musculus [47] = experiment: Post treatment activity score for CNS study using a actophotometer at a dose of 100 mg/Kg after 1 hr when given i.p., in mice (No. of animals 6); Control (24h before) 217
Rattus norvegicus [48] = experiment: After discharge duration time when before administered in rat 1 at dose 130 mg/Kg when given i.p., upon preliminary hippocampal-kindling screen; Prodrug time 26-39 s; assay type: functional, Hippocampus
Rattus norvegicus [49] = experiment: After discharge duration time when after administered in rat 2 at dose 130 mg/Kg when given i.p., upon preliminary hippocampal-kindling screen; assay type: functional, Hippocampus
Rattus norvegicus [50] = species on record: Rattus norvegicus; experiment: Ex vitro percentage inhibition activity against GABA-T enzyme at a concentration of 2.5 uM after 3 h; assay type: functional
[51] = molecular target: 4-aminobutyrate aminotransferase, mitochondrial (Rattus norvegicus) (UniProt P50554); experiment: In vitro percentage inhibition activity against GABA-T enzyme at a concentration of 1.25 uM after 4.5 h
Rattus norvegicus [52] = experiment: Seizure score before administration in rat 1 at dose 130 mg/Kg when given i.p., upon preliminary hippocampal-kindling screen; assay type: functional, Hippocampus
Rattus norvegicus [53] = experiment: Toxic dose observed for anticonvulsant activity when given orally at 4 h in rat upon neurotoxicity seizure; assay type: functional; conditions: po
Mus musculus [54] = experiment: Post treatment activity score for CNS study using a actophotometer at a dose of 100 mg/Kg after 0.5 hr when given i.p., in mice (No. of animals 6); Control (24h before) 217
Rattus norvegicus [55] = experiment: Enzymatic activity to assess the increase in level of SGPT at a dose of 30 mg/Kg for 14 days when given p.o., in 6 rats; Control 45.0; assay type: functional

Sequence of 4-aminobutyrate aminotransferase, mitochondrial (Rattus norvegicus) (P50554 28-500 limits assumed): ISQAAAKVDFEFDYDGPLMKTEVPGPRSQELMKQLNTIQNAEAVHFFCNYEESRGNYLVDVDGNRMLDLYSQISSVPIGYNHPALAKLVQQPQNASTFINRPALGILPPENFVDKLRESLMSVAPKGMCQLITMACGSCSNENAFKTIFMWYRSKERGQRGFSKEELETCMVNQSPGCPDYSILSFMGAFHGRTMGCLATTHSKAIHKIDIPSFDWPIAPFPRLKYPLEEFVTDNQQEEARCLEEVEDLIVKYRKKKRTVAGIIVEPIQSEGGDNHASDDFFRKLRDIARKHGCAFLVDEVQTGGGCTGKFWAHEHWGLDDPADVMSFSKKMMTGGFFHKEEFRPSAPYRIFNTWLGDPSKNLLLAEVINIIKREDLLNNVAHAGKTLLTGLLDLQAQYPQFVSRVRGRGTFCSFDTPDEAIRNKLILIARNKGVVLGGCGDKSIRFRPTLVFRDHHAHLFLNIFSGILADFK

Cc1cccc(C)c1NC(=O)N/N=C/c1cccc([N+](=O)[O-])c1
STY seizure (Mus musculus [1]): 30 mg/kg | Score (Rattus norvegicus [2]): 5 | ADD (Rattus norvegicus [3]): 39 s | Activity (Mus musculus [4]): 231 | ADD (Rattus norvegicus [5]): 42 s | Activity (Rattus norvegicus [6]): 1 | PTZ seizure (Mus musculus [7]): 300 mg/kg | Inhibition (Rattus norvegicus [8]): 0% | PI (Rattus norvegicus [9]): >4 | STY seizure (Mus musculus [10]): 100 mg/kg | NT (Mus musculus [11]): 300 mg/kg | Activity (Rattus norvegicus [12]): 1 | MES (Mus musculus [13]): 100 mg/kg | Time (Mus musculus [14]): 147 min | Activity (Mus musculus [15]): 131 | Score (Rattus norvegicus [16]): 4 | Activity (Rattus norvegicus [17]): 79.8 ug/100mg of tissue | ADD (Rattus norvegicus [18]): 52 s | Activity (Rattus norvegicus [19]): 3 | MES (Mus musculus [20]): 300 mg/kg | Activity (Rattus norvegicus [21]): 3 | inhibition [22]: 0% | Activity (Rattus norvegicus [23]): 87.9 ug/100mg of tissue | Inhibition (Rattus norvegicus [24]): 0% | Inhibition (Rattus norvegicus [25]): 0% | inhibition [26]: 88% | ADD (Rattus norvegicus [27]): 59 s | ED50 (Rattus norvegicus [28]): 29.7 mg/kg | Score (Rattus norvegicus [29]): 5 | TD50 (Rattus norvegicus [30]): > 120 mg/kg | inhibition [31]: 0% | Activity (Rattus norvegicus [32]): 1 | Activity (Mus musculus [33]): 129 | Score (Rattus norvegicus [34]): 1

Cc1cccc(C)c1NC(=O)N/N=C/c1ccccc1O
STY seizure (Mus musculus [1]): 30 mg/kg | Score (Rattus norvegicus [35]): 1 | ADD (Rattus norvegicus [36]): 39 s | inhibition [37]: 9% | ED50 (Rattus norvegicus [38]): 19.8 mg/kg | Activity (Rattus norvegicus [6]): 4 | inhibition [39]: 58% | Inhibition (Rattus norvegicus [40]): 43% | PTZ seizure (Mus musculus [7]): 300 mg/kg | ADD (Rattus norvegicus [41]): 59 s | PI (Rattus norvegicus [9]): >25.1 | STY seizure (Mus musculus [10]): 100 mg/kg | Score (Rattus norvegicus [42]): 1 | Activity (Rattus norvegicus [12]): 3 | MES (Mus musculus [13]): 100 mg/kg | Score (Rattus norvegicus [43]): 5 | Activity (Mus musculus [44]): 191 | Inhibition (Rattus norvegicus [45]): 0% | SGOT activity (Rattus norvegicus [46]): 64.8 units/mL | Activity (Mus musculus [47]): 135 | ADD (Rattus norvegicus [48]): 39 s | Activity (Rattus norvegicus [17]): 92.1 ug/100mg of tissue | Activity (Rattus norvegicus [19]): 4 | MES (Mus musculus [20]): 300 mg/kg | ADD (Rattus norvegicus [49]): 25 s | Activity (Rattus norvegicus [21]): 3 | Inhibition (Rattus norvegicus [50]): 90% | inhibition [51]: 0% | Activity (Rattus norvegicus [23]): 110 ug/100mg of tissue | Score (Rattus norvegicus [52]): 5 | TD50 (Rattus norvegicus [53]): > 500 mg/kg | Activity (Mus musculus [54]): 155 | Activity (Rattus norvegicus [32]): 1 | SGPT activity (Rattus norvegicus [55]): 43.3 units/mL
